These results are taken from US4450269A, “Mono-5-substituted-3-chloro-4H-1,2,6-thiadiazin-4-one antifungal agents” (FMC Corporation, priority 1980, dated 1984).

Read-outs that look alike come from different tables or passages of the source.

What all share (format): cell-based
One test deals with Cladosporium cucumerinum. The experiment in a line: Spore germination test. As to conditions: CC, 48 hours. On the procedure:
CC = Cladosporium cucumerinum
(§1) The test chemical was dissolved or suspended in acetone in an amount such that 0.8 ml of the resulting suspension or solution, mixed with 40 ml water agar produced a water agar solution containing 40, 10, 2.5 and 1 ppm of test chemical. The resulting agar solution, at 50° C., was then divided equally between two sterile petri dishes, each having four separated quadrants, and allowed to solidify. […] quadrants of each dish were flooded with 0.1 ml of a spore suspension in sterile water. Spores of two pathogens, Erysiphe polygoni and Uromyes phaseoli, from infected plant leaves, were brushed on the remaining two quadrants. The tests were then incubated 48 hours, at 24° C.
(§2) Readings were then taken and the percentage of germinated spores calculated. From this percentage, a spore germination rating was assigned as follows: […]

In another test the test system is Venturia inaequalis. The experiment in a line: Spore germination test. The following applies: VI, 48 hours. On the procedure:
VI = Venturia inaequalis
as §1, §2

A further test relates to Phytophthora infestans. The following applies: PI, 48 hours.

On to `CC(C)(C)c1ccc(Oc2nsnc(Cl)c2=O)cc1` [Compound 4, 3-chloro-5-(4-tert-butylphnoxy)-4H--1,2,6-thiadiazin-4-one], for which the “Spore Germination Rating” value in the test on Cladosporium cucumerinum (1.0 ppm) was 4 (80-100); in the test with Cladosporium cucumerinum (2.5 ppm), 4 (80-100); with Cladosporium cucumerinum (10 ppm) it was 0 (0-10); in the test on Cladosporium cucumerinum (40 ppm) it was 0 (0-10); in the test with Venturia inaequalis (1.0 ppm) it was 4 (80-100); in the test with Venturia inaequalis (2.5 ppm), 4 (80-100). Besides, the “Spore Germination Rating” value in the test on Venturia inaequalis (10 ppm) is given as 0 (0-10); in the test on Venturia inaequalis (40 ppm), 0 (0-10); with Phytophthora infestans (1.0 ppm), 4 (80-100); in the test on Phytophthora infestans (2.5 ppm) it was 3 (60-80); in the test on Phytophthora infestans (10 ppm), 0 (0-10); in the test on Phytophthora infestans (40 ppm) it was 0 (0-10).
As to `COc1ccc(Oc2nsnc(Cl)c2=O)cc1` [Compound 5, 3-chloro-5-(4-methoxyphenoxy)4H--1,2,6-thiadiazin-4-one], the “Spore Germination Rating” value is 4 (80-100) in the test on Cladosporium cucumerinum (1.0 ppm); 4 (80-100) with Cladosporium cucumerinum (2.5 ppm); 0 (0-10) in the test on Cladosporium cucumerinum (10 ppm); 0 (0-10) in the test with Cladosporium cucumerinum (40 ppm); 3 (60-80) in the test on Venturia inaequalis (1.0 ppm); 0 (0-10) in the test with Venturia inaequalis (2.5 ppm). Also, the “Spore Germination Rating” value in the test on Venturia inaequalis (10 ppm) is given as 0 (0-10); in the test with Venturia inaequalis (40 ppm) it was 0 (0-10); in the test with Phytophthora infestans (1.0 ppm), 2 (40-60); with Phytophthora infestans (2.5 ppm), 2 (40-60); in the test on Phytophthora infestans (10 ppm), 2 (40-60); in the test with Phytophthora infestans (40 ppm) it was 0 (0-10).
As to `CCCCOc1ccc(Oc2nsnc(Cl)c2=O)cc1` [Compound 6, 3-chloro-5-(4-n-butoxyphenoxy)-4H--1,2,6-thiadiazin-4-one], the “Spore Germination Rating” value with Cladosporium cucumerinum (1.0 ppm) is reported as 0 (0-10); in the test on Cladosporium cucumerinum (2.5 ppm), 0 (0-10); in the test on Cladosporium cucumerinum (10 ppm), 0 (0-10); in the test on Cladosporium cucumerinum (40 ppm) it was 0 (0-10); in the test on Venturia inaequalis (1.0 ppm) it was 1 (10-40); with Venturia inaequalis (2.5 ppm), 0 (0-10). In addition, the “Spore Germination Rating” value in the test on Venturia inaequalis (10 ppm) is recorded as 0 (0-10); with Venturia inaequalis (40 ppm), 0 (0-10); in the test on Phytophthora infestans (1.0 ppm), 2 (40-60); in the test with Phytophthora infestans (2.5 ppm), 0 (0-10); in the test with Phytophthora infestans (10 ppm), 0 (0-10); in the test with Phytophthora infestans (40 ppm) it was 0 (0-10).
For `CCOC(=O)c1ccc(Oc2nsnc(Cl)c2=O)cc1` [Compound 7, 3-chloro-5-(4-ethoxycarbonylphenoxy)-4H--1,2,6-thiadiazin-4-one], the “Spore Germination Rating” value with Cladosporium cucumerinum (1.0 ppm) is recorded as 0 (0-10); with Cladosporium cucumerinum (2.5 ppm), 0 (0-10); in the test on Cladosporium cucumerinum (10 ppm), 0 (0-10); with Cladosporium cucumerinum (40 ppm) it was 1 (10-40); in the test on Venturia inaequalis (1.0 ppm), 0 (0-10); with Venturia inaequalis (2.5 ppm), 0 (0-10). In addition, the “Spore Germination Rating” value in the test on Venturia inaequalis (10 ppm), in the test on Venturia inaequalis (40 ppm), in the test with Phytophthora infestans (1.0 ppm), in the test on Phytophthora infestans (2.5 ppm), in the test on Phytophthora infestans (10 ppm) and in the test on Phytophthora infestans (40 ppm) was 0 (0-10) each time.
`CC(=O)Nc1ccc(Oc2nsnc(Cl)c2=O)cc1` [Compound 8, 5-(4-acetylaminophenoxy)-3-chloro-4H--1,2,6-thiadiazin-4-one]: the “Spore Germination Rating” value is recorded as 4 (80-100) with Cladosporium cucumerinum (1.0 ppm); 3 (60-80) in the test with Cladosporium cucumerinum (2.5 ppm); 0 (0-10) in the test on Cladosporium cucumerinum (10 ppm); 0 (0-10) in the test on Cladosporium cucumerinum (40 ppm); 4 (80-100) in the test with Venturia inaequalis (1.0 ppm); 3 (60-80) in the test with Venturia inaequalis (2.5 ppm). In addition, the “Spore Germination Rating” value with Venturia inaequalis (10 ppm) is 2 (40-60); in the test on Venturia inaequalis (40 ppm), 0 (0-10); in the test on Phytophthora infestans (1.0 ppm), 4 (80-100); in the test with Phytophthora infestans (2.5 ppm), 4 (80-100); with Phytophthora infestans (10 ppm), 0 (0-10); with Phytophthora infestans (40 ppm) it was 0 (0-10).
On to `O=c1c(Cl)nsnc1Oc1ccc([N+](=O)[O-])cc1` [Compound 9, 3-chloro-5-(4-nitrophenoxy)-4H--1,2,6-thiadiazin-4-one], for which the “Spore Germination Rating” value in the test with Cladosporium cucumerinum (1.0 ppm), with Cladosporium cucumerinum (2.5 ppm), with Cladosporium cucumerinum (10 ppm), with Cladosporium cucumerinum (40 ppm), with Venturia inaequalis (1.0 ppm) and in the test on Venturia inaequalis (2.5 ppm) was 0 (0-10) in each case. Besides, the “Spore Germination Rating” value in the test with Venturia inaequalis (10 ppm), in the test on Venturia inaequalis (40 ppm), in the test on Phytophthora infestans (1.0 ppm), in the test with Phytophthora infestans (2.5 ppm), in the test with Phytophthora infestans (10 ppm) and in the test with Phytophthora infestans (40 ppm) was 0 (0-10) throughout.
For `N#Cc1ccc(Oc2nsnc(Cl)c2=O)cc1` [Compound 10, 3-chloro-5-(4-cyanophenoxy)-4H--1,2,6-thiadiazin-4-one], the “Spore Germination Rating” value in the test on Cladosporium cucumerinum (1.0 ppm), in the test on Cladosporium cucumerinum (2.5 ppm), in the test on Cladosporium cucumerinum (10 ppm), in the test on Cladosporium cucumerinum (40 ppm), in the test on Venturia inaequalis (1.0 ppm) and in the test on Venturia inaequalis (2.5 ppm) was 0 (0-10) throughout. Besides, the “Spore Germination Rating” value in the test on Venturia inaequalis (10 ppm) was 0 (0-10); with Venturia inaequalis (40 ppm) it was 0 (0-10); with Phytophthora infestans (1.0 ppm), 0 (0-10); with Phytophthora infestans (2.5 ppm), 0 (0-10); in the test on Phytophthora infestans (10 ppm), 0 (0-10); with Phytophthora infestans (40 ppm), 1 (10-40).
Take `O=c1c(Cl)nsnc1Oc1ccc(F)cc1` [Compound 11, 3-chloro-5-(4-fluorophenoxy)-4H--1,2,6-thiadiazin-4-one]: the “Spore Germination Rating” value in the test on Cladosporium cucumerinum (1.0 ppm) is recorded as 0 (0-10); in the test on Cladosporium cucumerinum (2.5 ppm), 0 (0-10); with Cladosporium cucumerinum (10 ppm), 0 (0-10); in the test with Cladosporium cucumerinum (40 ppm), 0 (0-10); in the test on Venturia inaequalis (1.0 ppm), 4 (80-100); in the test with Venturia inaequalis (2.5 ppm), 1 (10-40). Further, the “Spore Germination Rating” value in the test with Venturia inaequalis (10 ppm) is reported as 0 (0-10); in the test with Venturia inaequalis (40 ppm) it was 0 (0-10); in the test on Phytophthora infestans (1.0 ppm), 4 (80-100); with Phytophthora infestans (2.5 ppm), 0 (0-10); in the test on Phytophthora infestans (10 ppm) it was 0 (0-10); in the test with Phytophthora infestans (40 ppm), 0 (0-10).
Turning to `O=c1c(Cl)nsnc1Oc1ccc(Cl)cc1` [Compound 12, 3-chloro-5-(4-chlorophenoxy)-4H--1,2,6-thiadiazin-4-one], the “Spore Germination Rating” value is on record as 2 (40-60) with Cladosporium cucumerinum (1.0 ppm); 0 (0-10) in the test with Cladosporium cucumerinum (2.5 ppm); 0 (0-10) in the test on Cladosporium cucumerinum (10 ppm); 0 (0-10) with Cladosporium cucumerinum (40 ppm); 1 (10-40) with Venturia inaequalis (1.0 ppm); 0 (0-10) in the test with Venturia inaequalis (2.5 ppm). The “Spore Germination Rating” value is given as 0 (0-10) in the test on Venturia inaequalis (10 ppm); 0 (0-10) in the test with Venturia inaequalis (40 ppm); 1 (10-40) in the test on Phytophthora infestans (1.0 ppm); 1 (10-40) in the test with Phytophthora infestans (2.5 ppm); 1 (10-40) with Phytophthora infestans (10 ppm); 0 (0-10) in the test with Phytophthora infestans (40 ppm).
On to `O=c1c(Cl)nsnc1Oc1cccc(Cl)c1` [Compound 13, 3-chloro-5-(3-chlorophenoxy)-4H--1,2,6-thiadiazin-4-one], for which the “Spore Germination Rating” value in the test on Cladosporium cucumerinum (1.0 ppm) was 2 (40-60); in the test with Cladosporium cucumerinum (2.5 ppm), 0 (0-10); in the test on Cladosporium cucumerinum (10 ppm), 0 (0-10); in the test on Cladosporium cucumerinum (40 ppm) it was 0 (0-10); in the test with Venturia inaequalis (1.0 ppm) it was 1 (10-40); in the test on Venturia inaequalis (2.5 ppm), 0 (0-10). For the same molecule, the “Spore Germination Rating” value in the test with Venturia inaequalis (10 ppm), in the test on Venturia inaequalis (40 ppm), in the test on Phytophthora infestans (1.0 ppm), with Phytophthora infestans (2.5 ppm), with Phytophthora infestans (10 ppm) and in the test on Phytophthora infestans (40 ppm) was 0 (0-10) in each case.
With `O=c1c(Cl)nsnc1Oc1ccccc1Cl` [Compound 14, 3-chloro-5-(2-chlorophenoxy)-4H--1,2,6-thiadiazin-4-one], the “Spore Germination Rating” value is reported as 4 (80-100) in the test with Cladosporium cucumerinum (1.0 ppm); 0 (0-10) in the test on Cladosporium cucumerinum (2.5 ppm); 0 (0-10) with Cladosporium cucumerinum (10 ppm); 0 (0-10) in the test with Cladosporium cucumerinum (40 ppm); 0 (0-10) in the test with Venturia inaequalis (1.0 ppm); 0 (0-10) in the test on Venturia inaequalis (2.5 ppm). For the same molecule, the “Spore Germination Rating” value with Venturia inaequalis (10 ppm), with Venturia inaequalis (40 ppm), with Phytophthora infestans (1.0 ppm), in the test with Phytophthora infestans (2.5 ppm), in the test with Phytophthora infestans (10 ppm) and with Phytophthora infestans (40 ppm) was 0 (0-10) throughout.
As to `O=c1c(Cl)nsnc1Oc1ccc(Br)cc1` [Compound 15, 3-chloro-5-(4-bromophenoxy)-4H--1,2,6-thiadiazin-4-one], the “Spore Germination Rating” value in the test on Cladosporium cucumerinum (1.0 ppm), in the test with Cladosporium cucumerinum (2.5 ppm), with Cladosporium cucumerinum (10 ppm), in the test with Cladosporium cucumerinum (40 ppm), in the test on Venturia inaequalis (1.0 ppm) and in the test on Venturia inaequalis (2.5 ppm) was 0 (0-10) throughout. Moreover, the “Spore Germination Rating” value is 0 (0-10) in the test with Venturia inaequalis (10 ppm); 0 (0-10) with Venturia inaequalis (40 ppm); 0 (0-10) in the test with Phytophthora infestans (1.0 ppm); 1 (10-40) in the test with Phytophthora infestans (2.5 ppm); 0 (0-10) in the test on Phytophthora infestans (10 ppm); 0 (0-10) in the test with Phytophthora infestans (40 ppm).
As to `O=c1c(Cl)nsnc1Oc1ccc(Cl)c(Cl)c1` [Compound 16, 3-chloro-5-(3,4-dichlorophenoxy)-4H--1,2,6-thiadiazin-4-one], the “Spore Germination Rating” value in the test with Cladosporium cucumerinum (1.0 ppm), in the test on Cladosporium cucumerinum (2.5 ppm), in the test with Cladosporium cucumerinum (10 ppm), with Cladosporium cucumerinum (40 ppm), in the test with Venturia inaequalis (1.0 ppm) and in the test on Venturia inaequalis (2.5 ppm) was 0 (0-10) each time. Also, the “Spore Germination Rating” value in the test with Venturia inaequalis (10 ppm) is listed as 0 (0-10); in the test with Venturia inaequalis (40 ppm) it was 0 (0-10); with Phytophthora infestans (1.0 ppm) it was 1 (10-40); with Phytophthora infestans (2.5 ppm), 0 (0-10); in the test with Phytophthora infestans (10 ppm) it was 0 (0-10); in the test with Phytophthora infestans (40 ppm) it was 0 (0-10).
